Test results reported in patent EP0980354B1, “VITAMIN D3 ANALOGS WITH BIS C-20 SIDE CHAINS” (priority 1997, dated 1998).

How the values were obtained:
parathyroid hormone = assay: Secondary hyperparathyroidism in the 7/8 nephrectomy rat renal insufficiency model (serum PTH, serum calcium); format: in vivo, Female Sprague Dawley rats; parameters: Final Ca Levels (mg/ml): unit not given here; conditions: for PTH pg/ml T=1-T=0 / Final Ca Levels (mg/ml): 7 days, 7/8 nephrectomized rats, serum
From the text: • Compound of Formula Ia • 1,25(OH)2 vitamin D3 (control) • Vehicle - Miglyol 812
Female Sprague Dawley rats were anesthesized, their right kidney removed and 2-3 branches of the left renal artery were ligated to achieve 7/8 nephrectomy. They were placed on a high phosphorous diet (0.6% Ca and 0.8 phosphorous). Approximately 3-6 weeks after surgery, rats were bled to screen serum PTH levels and rats with PTH levels between 100-500 pg/ml were selected for the study.
There was a pre-bleed (T=0) and each group was dosed daily for seven days by oral gavage with either the compound of Formula Ia (10, 1 or 0.1 µg/kg/day), vehicle control or […] positive control. Compounds were predissolved in ethanol and diluted with vehicle (Miglyol 812) followed by evaporation of the ethanol.
After the last day of dosing, the animals were bled again (T=1) and sacrificed. Serum PTH assays were done with Nichols Institute Diagnostic Kit #40-2240. Serum calcium assays were done with Sigma Diagnostic Kit #587 with o-cresophthalein. Serum creatinine assays were done with Sigma Diagnostic Kit #1600-320 with ammonium molybdate.

ZR-75 cells = assay: Cell proliferation assay in ZR-75 breast cancer cells (MTT); format: cell-based, human; conditions: for IC50: ZR-75 cells, 10 days of culture, MTT
Procedure: ZR-75 cells are human mammary carcinoma cells that are positive for estrogen receptors. The potential activity of vitamin D3 analogs against breast cancer was assessed from inhibition of proliferation of ZR-75 cells in culture.
ZR-75 cells were plated at 12,500 cells/well in 24-well plates and incubated at 37°C in 5% CO2/95% air in RPMI medium containing 10% fetal bovine serum and 2 mM glutamine. Stock solutions of vitamin D3 analogs were prepared at a concentration of 10 mM in absolute ethanol and stored at -20°C under argon. One day after plating, ZR-75 cells were refed with either control medium or medium containing varying concentrations of the vitamin D3 analog.
The IC50 value was defined as the concentration of the vitamin D3 analog corresponding to half-maximal reduction in 570 nm absorbance.

MCF-7 cells = assay: Cell proliferation assay in MCF-7 breast cancer cells (MTT); format: cell-based, human; conditions: for IC50: MCF-7 cells, 7 days of culture, MTT
Procedure: MCF-7 cells are human mammary carcinoma cells that are positive for estrogen receptors. The potential activity of vitamin D3 analogs against breast cancer was assessed from inhibition of proliferation of MCF-7 cells in culture.
MCF-7 cells were plated at 5000 cells/well in 96-well plates and incubated at 37°C in 5% CO2/95% air in Dulbecco's Modified Eagle Medium containing 10% fetal bovine serum 700 nM insulin, 2 mM glutamine, 0.1 mM MEM non-essential amino acids and 1 mM sodium pyruvate. Stock solutions of vitamin D3 analogs were prepared at a concentration of 10 mM in absolute ethanol and stored at -20°C under argon. One day after plating, MCF-7 cells were refed with either control medium or medium containing varying concentrations of the vitamin D3 analog.
For each vitamin D3 analog, the IC50 value was determined from a graph relating the optical density at 570 nm to the concentration used. The IC50 value was defined as the concentration of the vitamin D3 analog corresponding to half-maximal reduction in 570 nm absorbance.

[1] = tested on: postmenopausal osteoporosis; conditions: 0.25 microgram twice daily, after 3 years, mild to moderate disease, versus elemental calcium 1000 mg/day; cited from earlier work

Compound | PTH pg/ml T=1-T=0 (parathyroid hormone; 0.1 µg/kg/day po) [pg/mL] | IC50 (ZR-75 cells; Homo sapiens, ZR75, 240 h) [nM] | IC50 (MCF-7 cells; Homo sapiens, MCF7, 168 h) [nM] | lower rate of new vertebral fractures [1] [fold] | Final Ca Levels (mg/ml) (parathyroid hormone; 0.1 µg/kg/day po) | Final Ca Levels (mg/ml) (parathyroid hormone; 1 µg/kg/day po) | PTH pg/ml T=1-T=0 (parathyroid hormone; 1 µg/kg/day po) [pg/mL] | Final Ca Levels (mg/ml) (parathyroid hormone; 10 µg/kg/day po) | PTH pg/ml T=1-T=0 (parathyroid hormone; 10 µg/kg/day po) [pg/mL] | suppressing the elevated levels of parathyroid hormone (parathyroid hormone; compared with 1,25(OH)2 vit. D3, summary in words) | elevated calcium levels (parathyroid hormone; summary in words) | IC50 (ZR-75 cells) [nM] | potency relative to 1,25-dihydroxy-cholecalciferol in inhibition of ZR-75 breast cells growth (ZR-75 cells; ratio of IC50 values) | IC50 (MCF-7 cells) [nM] | potency relative to 1,25-dihydroxy-cholecalciferol in inhibition of MCF-7 breast cells growth (MCF-7 cells; ratio of IC50 values)
C=C1/C(=C\C=C2/CCC[C@]3(C)[C@@H]([C@H](C)CCCC(C)(C)O)CC[C@@H]23)C[C@@H](O)C[C@@H]1O [1,25(OH)2 vit. D3, 1,25-dihydroxyvitamin D3, reference compound] | -66 | 13 | 40 | 3 |  |  |  |  |  |  |  |  |  |  | 
(1α,3β,5Z,7E)-21-(3-hydroxy-3-methylbutyl)-9,10-Secocholesta-5,7,10, (19)-triene-1,3,25-triol [Formula Ia] | 112 |  |  |  | 10.20 | 10.35 | -124 | 11.97 | -132 | more effective than 1,25(OH)2 vit. D3 | without causing elevated calcium levels | 0.3 | more than 40 times | 0.8 | approximately 50 times
